Results published in US20190290620A1, “APPLICATIONS OF NOVEL THIAZOLE DERIVATIVE IN TREATING INFLAMMATORY BOWEL DISEASES” (EAST CHINA UNIVERSITY OF SCIENCE AND TECHNOLOGY, priority 2016, published 2019).
Marks after values point to notes of the source that are not given here.

System: TNBS-induced ulcerative colitis model mice
Assay: TNBS-induced mice ulcerative colitis model
Assay type: in vivo, BALB/c male mice
Set-up: key to Scores of gross morphological damages: 0 = no adhesion/ulcer/inflammation, 4+ = severe ulcers (+1 per cm)
Protocol: BALB/c male mice (each 18-22 g) of SPF level were purchased from Shanghai Slack Laboratory Animal Co., Ltd. and were used in experiments after adaptive feeding for 7 days.
BALB/c male mice were kept in an animal cage (daylight and darkness of 12 hours, respectively) at a temperature of 20-25° C. and relative humidity of 50-60%, free access to food and water.
Mice were randomly divided into normal control group, trinitrobenzenesulfonic acid (TNBS) model group, drug treatment group and positive drug control group (sulfasalazine 500 mg/kg).
All of the mice in model group and administration group were shaved in the abdomen (area 2×2 cm) and sensitized with 1% TNBS (dissolved in 50% ethanol). On the 7th day, the mice were fasted, but not water. After 24 hours, the mice were anesthetized through intraperitoneal injection of 0.1 ml of 10% chloral hydrate and 2% TNBS was used for lavation to establish a mouse model of ulcerative colitis. A gavage needle for rat was inserted into the colon of a mouse, the tip of the needle was about 3˜3.5 cm away from the anus, and 0.1 ml of modeling solution (5% TNBS and deionized water were mixed at a volume ratio of 4:1, and the obtained solution was mixed with absolute ethanol at a volume ratio of 1:1, so as to obtain the modeling solution) was injected. The mice were put back into the cage and wake up naturally. The mice in the normal control group were injected with 0.12 ml of solvent (50% ethanol solution) by the same manner.
Administration was started on the day of modeling (using 0.5% sodium carboxymethylcellulose, CMC-Na) for 7 consecutive days.
At 24 hours after the last administration, the mice were sacrificed by cervical dislocation, the peritoneum was cut open, and the whole colon was taken. The intestine was cut longitudinally along the mesenteric margin, rinsed with ice physiological saline, placed on ice, and the pathological changes of the colon were observed. The fat and mesentery were removed, the water was blotted with filter paper, the weight of the colon was weighed and the length was measured. The colon was fixed in 4% formaldehyde for more than 24 hours, dehydrated, paraffin-embedded and H&E stained, and the pathological sections were observed.
The mice were observed and recorded daily for mental state, fur color, and activities. The mice was weighed daily and observed for the stool traits. The body weight index according to the disease activity index (DAI) is as follows:
After the colon of a mouse was removed, the weight of the colon was measured with a precision electronic balance, the length was measured with a vernier caliper, and the weight/length ratio of the colon was calculated.
The criteria for scores were: no adhesion, no ulcer, no inflammation, 0 points; mild adhesion, local congestion, no ulcer, 1 point; severe adhesion, 1 ulcer (area less than 1 cm), no obvious inflammation, 2 points; more than 1 ulcers (area less than 1 cm) with inflammation, 3 points; 2 severe ulcers (area greater than 1 cm) with inflammation, 4 points; and 1 point for each 1 cm increase in ulcer area.
Pathological changes of colon tissue were observed under light microscope, and the scores were recorded. The criteria for scores are as follows:
1) Epithelial cells: normal morphology, 0 points; loss of goblet cells, 1 point; large loss of goblet cells, 2 points; loss of crypt cells, 3 points; large loss of crypt cells, 4 points.
2) Infiltration of inflammatory cells: no infiltration, 0 points; infiltration in the basal layer of the crypt, 1 point; infiltration to the muscular layer of the mucosa, 2 points; infiltration to the muscular layer of the mucosa with mucosal thickening and obvious edema, 3 points; infiltration to the submucosal layer, 4 points.
Data were expressed as […] (mean±S.E.M.), data were analyzed using SPSS statistical software, and one-way ANOVA and Tukey's HSD post hoc test were used for comparison between groups. p<0.05 was considered statistically significant.

[1] = 24 hours after last administration, ig 7 days, compound 20 mg/kg, sulfasalazine 500 mg/kg

With O=C(O)c1cc(/N=N/c2ccc(S(=O)(=O)Nc3ccccn3)cc2)ccc1O [sulfasalazine, reference compound] the “Score (body weight index according to the disease activity index, DAI)” value (0-4 points by weight decrease, ig 7 days, compound 20 mg/kg, sulfasalazine 500 mg/kg) was 1, the “Length of the colon” value [1] was 5.814 ± 0.465 cm and the “Weight of the colon” value [1] was 0.145 ± 0.018 g. For the same molecule, the “diarrhea of the mice (general condition)” value (FIG. 2, TNBS-mediated UC model BALB/c mice, Compound 16 in three different dosage groups, sulfasalazine control group) was “mild”, the death of mice (FIG. 2, on the 8th day of the experiment, model group mortality about 50%) was “only one mouse died” and the “extent of ulcer lesions of colon and visceral adhesions” value (FIG. 3, compound 312 at 5 mg/kg, 20 mg/kg, 50 mg/kg and positive drugs, vs model group) was “can improve the extent of ulcer lesions of colon and visceral adhesions”. The “histopathology of colon (HE staining, mucosal integrity / lesions)” value (FIG. 4, compared with the model group) was “largely reversed”, the Histopathology scores (H&E colon sections, epithelial cells and inflammatory cell infiltration points, ig 7 days, compound 20 mg/kg, sulfasalazine 500 mg/kg) was 1.71 ± 0.69 and the “Scores of gross morphological damages” value (colon adhesion, ulceration, inflammation points, ig 7 days, compound 20 mg/kg, sulfasalazine 500 mg/kg) was 0.81 ± 0.69. For the same molecule, the “weight/length ratio (average) of colon” value (colon weight (g) / length (cm), ig 7 days, compound 20 mg/kg, sulfasalazine 500 mg/kg) was 0.025# and the “Ratio of weight loss” value (ig daily for 7 days from day of modeling, compound 20 mg/kg, positive drug sulfasalazine 500 mg/kg, 10 mice per group) was 1.54 ± 3.72.
